Each structure is given as a SMILES string.

Usually melting point stands for the temperature, or range, at which the solid turns liquid. Molecule `O=C(c1ccccc1)N1CC2C(C1)C2Nc1ncc2cc(-c3ccccc3Cl)c(=O)n(-c3ccc(F)cc3)c2n1` (stereo not drawn) had a melting point of 242 to 244 °C. Turning to `CCN(C)c1nc2sc3c(NCc4ccco4)ncnc3c2c2c1CCC(C)(C)C2`, the melting point was 116 to 118 °C. Under `COc1cccc2sc(NC(=O)COC(C)=O)nc12` stands 161 to 162 °C; under `O=C(O)c1cc(S(=O)(=O)Oc2ccccc2-c2ccc(-c3c(Cc4ccccc4)oc4ccccc34)cc2)ccc1O`, 171 to 173 °C.

As for `COc1cccc2c1C(=O)N(C)CC(=O)N2`, the melting point was 208 to 210 °C. `CCCNc1nc(N)c2ncn(C3C=CCCC3)c2n1` (stereo not drawn) showed a melting point of 73 to 80 °C. To `CC(C)C(NS(=O)(=O)c1ccc(-c2cccc(CNC(=O)c3nc4ccccc4c(=O)[nH]3)c2)cc1)C(=O)NO` (stereo not drawn) belongs 153 to 155 °C; to `O=C(CCCCCl)c1cc2c3c(c1)CCN3C(=O)CC2`, 110 to 111 °C; to `Cc1ccnc(Nc2nc(-c3ccc(-c4ccccn4)s3)cs2)c1`, 185 to 187 °C. Take `Cc1oc(-c2ccccc2)nc1COc1ccc(COc2ccccc2CC(=O)O)cn1`: the melting point is 123 to 125 °C. Regarding `CCn1ncc2c1ncc1c(NCCCN(C)C)nc3cc(C)nn3c12`, the melting point was 178 to 179 °C.

`CCc1cccc2c3c([nH]c12)C(CC)(CC(N)=O)OCC3` (stereo not drawn) showed a melting point of 189 to 190 °C.

As for `O=C1Nc2ccccc2C1=C(c1ccc(Cl)cc1)c1ccc(Cl)cc1`, the melting point was in the range of 206 to 208 °C. To `N#CCc1c(C(F)(F)F)cccc1C(F)(F)F` belongs 84.5 to 86 °C. Molecule `Cn1c(=O)sc2cc(N3C[C@H](CN)OC3=O)ccc21` yielded a melting point of 217 °C. Molecule `CCOC(=O)CCCCCN(NS(=O)(=O)c1ccc(Cl)cc1)C(=O)Nc1cc(OC)cc(C(C)(C)C)c1O` yielded a melting point of 69 to 70 °C. Consider `COCOc1c(NC(=O)N(c2ccccc2)C2CCC(NC(=O)OCc3ccccc3)CC2)cc(OC)cc1C(C)(C)C` (stereo not drawn), for which the melting point was 145 to 154 °C.

Regarding `COc1ccc([C@H](O)[C@@H](Cc2ccc(C(F)(F)F)cc2)NC(=O)CCc2ccccc2)cc1` (racemic), the melting point fell in the range of 116 to 117 °C. The molecule `Cc1c(NC(=O)c2ccc(-c3cccc(F)c3)cc2)ccc2cc(CN3CCCC3)cnc12` returned a melting point of 158 to 159 °C. For `N#CCCNC(=O)Nc1cc(N2CC(c3ccccc3)CC2=O)ccn1` (stereo not drawn), the melting point was 260 to 263 °C. To `COc1ccn2nc(-c3ccccc3)c(-c3ccc(=O)n(C(C)C)n3)c2c1` belongs 180 to 182 °C; to `C=CCON1C(=O)c2ccc(Cl)c3c(N4CC[C@H](NC(=O)OC(C)(C)C)C4)cc(Cl)c(c23)C1=O`, 123 to 125 °C; to `COC(=O)c1ccccc1S(=O)(=O)NC(=O)Nc1nc(N(C)C)c2nc(C)c(C)nc2n1`, 196 °C. To `CC(C)(C)OC(=O)c1ncn2c1[C@@H]1CCCN1C(=O)c1cc(N)ccc1-2` belongs 223 to 224 °C. Regarding `Cc1ccc(-c2c(Cl)nc(-c3cccs3)nc2NS(=O)(=O)c2ccc(C(C)(C)C)cc2)cc1`, the melting point is greater than 300 °C. Under `Clc1ccc(Cn2cnc3c(-c4ccco4)ncnc32)cc1Cl` stands 183 to 185 °C; under `CC(C)c1ccc(C#N)nc1`, 47 to 49 °C; under `COc1cc(Nc2ccnc(Nc3cc(OC)c(OC)c(OC)c3)n2)cc(OC)c1`, 180 °C.

The molecule `Cc1oc(-c2ccccc2)nc1CCOc1ccc(CCCCC2OC(=O)NC2=O)cc1` (stereo not drawn) had a melting point of 136 to 137 °C. As to `CCCn1c(=O)c2c(N)n[nH]c2n(Cc2ccccc2)c1=O`, the melting point was in the range of 214 to 215 °C. `COc1ccccc1N(C)[C@@H](C)[C@H](O)c1ccccc1`: the melting point lay within 84 to 86 °C. To `COc1ccc(P(=O)(c2ccc(OC)cc2)c2ccc(OC)cc2)cc1` belongs 145 °C; to `COC(=O)C1Oc2cc(Cl)ccc2C(C)(c2ccccc2)O1` (stereo not drawn), 144 °C.

(Values after a melting point compilation (Tetko et al.; mined from patent text by program, amines drawn as free bases though some values may be those of a salt).)
